Assay results: the NIST ThermoML archive (doi:10.1016/j.jct.2014.07.019)
Numbers after ± are expanded uncertainties.

Test: xn = mol fraction of the nth substance listed
Conditions: 100 kPa, Liquid; for mass density: Vibrating tube method; for speed of sound: Frequency=3 MHz, Sing-around technique in a fixed-path interferometer

SMILES: CCCCOCC(C)O (stereo not given) [1-butoxy-2-propanol] + CC(C)O
- mass density (303.15 K, x1 = 0.0518): 787.006 ± 0.15 kg/m3
- mass density (303.15 K, x1 = 0.1029): 795.386 ± 0.15 kg/m3
- mass density (303.15 K, x1 = 0.1532): 802.969 ± 0.15 kg/m3
- mass density (303.15 K, x1 = 0.2019): 809.64 ± 0.15 kg/m3
- mass density (303.15 K, x1 = 0.2529): 816.061 ± 0.15 kg/m3
- mass density (303.15 K, x1 = 0.3032): 821.857 ± 0.14 kg/m3
- mass density (303.15 K, x1 = 0.4059): 832.254 ± 0.14 kg/m3
- mass density (303.15 K, x1 = 0.5048): 840.881 ± 0.14 kg/m3
- mass density (303.15 K, x1 = 0.604): 848.373 ± 0.14 kg/m3
- mass density (303.15 K, x1 = 0.7012): 854.833 ± 0.14 kg/m3
- mass density (303.15 K, x1 = 0.8028): 860.733 ± 0.15 kg/m3
- mass density (303.15 K, x1 = 0.8545): 863.464 ± 0.15 kg/m3
- mass density (303.15 K, x1 = 0.9056): 865.982 ± 0.15 kg/m3
- mass density (303.15 K, x1 = 0.954): 868.284 ± 0.15 kg/m3
- mass density (303.15 K, x1 = 1): 870.204 ± 0.15 kg/m3
- speed of sound (308.15 K, x1 = 0.0518): 1124.3 ± 1.2 m/s
- speed of sound (308.15 K, x1 = 0.1029): 1133.2 ± 1.2 m/s
- speed of sound (308.15 K, x1 = 0.1532): 1141.6 ± 1.2 m/s
- speed of sound (308.15 K, x1 = 0.2019): 1149.2 ± 1.2 m/s
- speed of sound (308.15 K, x1 = 0.2529): 1156.5 ± 1.2 m/s
- speed of sound (308.15 K, x1 = 0.3032): 1163.2 ± 1.2 m/s
- speed of sound (308.15 K, x1 = 0.4059): 1175.7 ± 1.2 m/s
- speed of sound (308.15 K, x1 = 0.5048): 1186.7 ± 1.2 m/s
- speed of sound (308.15 K, x1 = 0.604): 1196.6 ± 1.2 m/s
- speed of sound (308.15 K, x1 = 0.7012): 1204.8 ± 1.2 m/s
- speed of sound (308.15 K, x1 = 0.8028): 1212.8 ± 1.2 m/s
- speed of sound (308.15 K, x1 = 0.8545): 1216.2 ± 1.2 m/s
- speed of sound (308.15 K, x1 = 0.9056): 1219.7 ± 1.2 m/s
- speed of sound (308.15 K, x1 = 0.954): 1222.9 ± 1.2 m/s
- speed of sound (308.15 K, x1 = 1): 1224.9 ± 1.3 m/s
- mass density (308.15 K, x1 = 0.0518): 782.711 ± 0.15 kg/m3
- mass density (308.15 K, x1 = 0.1029): 791.07 ± 0.15 kg/m3
- mass density (308.15 K, x1 = 0.1532): 798.631 ± 0.15 kg/m3
- mass density (308.15 K, x1 = 0.2019): 805.279 ± 0.15 kg/m3
- mass density (308.15 K, x1 = 0.2529): 811.703 ± 0.15 kg/m3
- mass density (308.15 K, x1 = 0.3032): 817.482 ± 0.15 kg/m3
- mass density (308.15 K, x1 = 0.4059): 827.85 ± 0.14 kg/m3
- mass density (308.15 K, x1 = 0.5048): 836.456 ± 0.14 kg/m3
- mass density (308.15 K, x1 = 0.604): 843.934 ± 0.14 kg/m3
- mass density (308.15 K, x1 = 0.7012): 850.391 ± 0.15 kg/m3
- mass density (308.15 K, x1 = 0.8028): 856.287 ± 0.15 kg/m3
- mass density (308.15 K, x1 = 0.8545): 859.022 ± 0.15 kg/m3
- mass density (308.15 K, x1 = 0.9056): 861.537 ± 0.15 kg/m3
- mass density (308.15 K, x1 = 0.954): 863.829 ± 0.15 kg/m3
- mass density (308.15 K, x1 = 1): 865.737 ± 0.15 kg/m3
- speed of sound (313.15 K, x1 = 0.0518): 1103.5 ± 1.2 m/s
- speed of sound (313.15 K, x1 = 0.1029): 1111.5 ± 1.2 m/s
- speed of sound (313.15 K, x1 = 0.1532): 1121.5 ± 1.2 m/s
- speed of sound (313.15 K, x1 = 0.2019): 1129.9 ± 1.2 m/s
- speed of sound (313.15 K, x1 = 0.2529): 1138.4 ± 1.2 m/s
- speed of sound (313.15 K, x1 = 0.3032): 1146.6 ± 1.2 m/s
- speed of sound (313.15 K, x1 = 0.4059): 1159.4 ± 1.2 m/s
- speed of sound (313.15 K, x1 = 0.5048): 1170.3 ± 1.2 m/s
- speed of sound (313.15 K, x1 = 0.604): 1179.7 ± 1.2 m/s
- speed of sound (313.15 K, x1 = 0.7012): 1187.9 ± 1.2 m/s
- speed of sound (313.15 K, x1 = 0.8028): 1195.7 ± 1.2 m/s
- speed of sound (313.15 K, x1 = 0.8545): 1199.3 ± 1.2 m/s
- speed of sound (313.15 K, x1 = 0.9056): 1202.1 ± 1.2 m/s
- speed of sound (313.15 K, x1 = 0.954): 1204.7 ± 1.2 m/s
- speed of sound (313.15 K, x1 = 1): 1207 ± 1.3 m/s
- mass density (313.15 K, x1 = 0.0518): 778.081 ± 0.16 kg/m3
- mass density (313.15 K, x1 = 0.1029): 786.435 ± 0.15 kg/m3
- mass density (313.15 K, x1 = 0.1532): 793.996 ± 0.15 kg/m3
- mass density (313.15 K, x1 = 0.2019): 800.656 ± 0.15 kg/m3
- mass density (313.15 K, x1 = 0.2529): 807.104 ± 0.15 kg/m3
- mass density (313.15 K, x1 = 0.3032): 812.872 ± 0.15 kg/m3
- mass density (313.15 K, x1 = 0.4059): 823.26 ± 0.15 kg/m3
- mass density (313.15 K, x1 = 0.5048): 831.887 ± 0.15 kg/m3
- mass density (313.15 K, x1 = 0.604): 839.389 ± 0.15 kg/m3
- mass density (313.15 K, x1 = 0.7012): 845.859 ± 0.15 kg/m3
- mass density (313.15 K, x1 = 0.8028): 851.775 ± 0.15 kg/m3
- mass density (313.15 K, x1 = 0.8545): 854.514 ± 0.15 kg/m3
- mass density (313.15 K, x1 = 0.9056): 857.049 ± 0.15 kg/m3
- mass density (313.15 K, x1 = 0.954): 859.355 ± 0.15 kg/m3
- mass density (313.15 K, x1 = 1): 861.241 ± 0.15 kg/m3
